The values that follow come from US5294720A, “1,4-diamino-2,3-dihydroxybutanes” (The DuPont Merck Pharmaceutical Co., priority 1991, dated 1994).

For one experiment, the system named is HIV(3b) or HIV(Rf). The experiment in a line: HIV cell assay (HIV low multiplicity assay, protection of MT-2 cells from virus induced cell death, XTT). As to conditions: for Cell Assay IC50: unit not given. It is filed as cell-based, Human immunodeficiency virus. How it is done:
[…], a human T-cell line, was cultured in RPMI medium supplemented with 5% (v/v) heat inactivated fetal calf serum (FCS), L-glutamine and gentamycin (GIBCO). Human immunodeficiency virus strains HIV(3b) and HIV (Rf) were propagated in H-9 cells in RPMI with 5% FCS. XTT, benzene-sulfonic acid, 3,3'-[1-[(phenylamino)carbonyl]-3,4-tetrazolium]bis(4-methoxy-6-nitro)-, sodium salt, was obtained from Starks Associates, Inc.
Test compounds were dissolved in dimethyl-sulfoxide to 5 mg/ml and serially diluted into RPMI medium to ten times the desired final concentration. MT-2 cells (5×10E4/0.1 ml) were added to each well of a 96 well culture plate and 0.02 ml of the appropriate test compound solution was added to the cells such that each compound concentration was present in two wells. The cells and compounds were allowed to sit for 30 minutes at room temperature. HIV(3b) or HIV(Rf) (~5×10E5 plaque forming units/ml) was diluted in medium and added to the cell and compound mixtures to give a multiplicity of infection of 0.01 plaque forming unit/cell. The mixtures were incubated for 7 days at 36° C., during which time the virus replicated and caused the death of unprotected cells. The percentage of cells protected from virus induced cell death was determined by the degree of metabolism of the tetrazolium dye, XTT. In living cells, XTT was metabolized to a colored formazan product which was quantitated spectrophoto-metrically at […]. The amount of colored formazan was proportional to the number of cells protected from virus by the test compound. The concentration of compound protecting either 50% (IC50) or 90% (IC90) with respect to an uninfected cell culture was determined.
Background: Formazan colour is commonly taken as a measure of viable cells.

A further experiment concerns the target T1, HIV protease (Human immunodeficiency virus type 1 group M subtype B, UniProt P04585).
T1 construct: inclusion bodies of E. coli harboring plasmid containing HIV protease under the control of the T7 promotor; made in house; host or cells: E. coli (A: crude lysate, lac promotor)
The experiment in a line: Cell free protease inhibition assay (HIV gag polyprotein cleavage). It is filed as biochemical. As to conditions: Table XVII, unit inferred, IC50 per method. From the text:
HIV gag polyprotein corresponding to all of p17 and 78 amino acids of p24, produced by in vitro translation using rabbit reticulocyte lysate and mRNA prepared in vitro from plasmid encoding full length gag polyprotein linerized with the restriction enzyme Pst 1. (See S. Erickson-Viitanen et al., Aids Research and Human Retroviruses, 5 (6), 577 (1989) for plasmid construction, and basis for assay).
Source of protease: Either (A) crude E. coli lysate of bacteria harboring a plasmid containing HIV protease under the control of the lac promotor, used at a final concentration of 0.5 mg/ml, or (B) inclusion bodies of E. coli harboring plasmid containing HIV protease under the control of the T7 promotor (Cheng et al., Gene, in press (1990). Such inclusion bodies were solubilized in 8M urea, 50 mM Tris pH 8.0. Protease activity was recovered by dilution of the inclusion bodies 20-fold in buffer containing 50 mM Sodium Acetate, pH 5.5, 1 mM EDTA, 10% glycerol and 5% ethylene glycol. This protease source was used at a final concentration of 0.00875 mg/ml.
Inhibitory compounds were dissolved in sufficient DMSO to make a 25 mM stock concentration. All further dilutions were done in DMSO.
Into sterile test tubes were placed the following:
14 ul HIV protease in Phosphate Buffered Saline (Gibco)
5 ul of in vitro translation products.
Reactions were incubated at 30° C., then quenched by the addition of Sample buffer. See U. K. Laemmli, Nature, 1970, 227:680-685.
One fourth of each sample was analyzed on an 8-16% gradient denaturing acrylamide gel (Novex, Inc), according to Laemmli. Following electrophoresis, gels were fixed, impregnated with Enhance (Du Pont NEN, Boston, Mass.) and dried according to manufacturers instructions (NEN). Dried fluorographs were exposed to film and/or quantitated using an Ambis radioanalytic scanner.
Each group of test compounds was compared to the values obtained for pepstatin, a well known inhibitor of acid proteases. Inhibitory concentration for 50% inhibition (IC50) is determined from plots of log concentration inhibitor versus % inhibition of protease activity.
Biological Activity: IC50 is the concentration necessary for reducing the activity of the enzyme by 50%.

The mark [1] stands for this setting: Human immunodeficiency virus 1, MT2, Table XVII, unit inferred, HIV in MT-2 cells, read-out: Cell Assay IC90.
The mark [2] stands for this setting: read-out: Cell Free Assay (converted).
The mark [3] stands for this setting: Human immunodeficiency virus 1, MT2, Table XVII, unit inferred, HIV in MT-2 cells, read-out: Cell Assay IC50.

≈ marks a conversion by molar mass, not a printed value. Where a name gives a salt, the structure may show the parent alone. Read-outs that look alike come from different tables or passages of the source.

With `CSCCC(NC(=O)OC(C)(C)C)C(O)C(O)C(CCSC)NC(=O)OC(C)(C)C` (stereo not shown) [Example 1A], the IC90 with HIV(3b) or HIV(Rf) (setting [1]) worked out at 6 µg/mL (≈ 12.8 µM). Besides, the “Cell Assay IC50” value with HIV(3b) or HIV(Rf) (Table XVII, HIV in MT-2 cells) stood at 2. Further, the IC50 at HIV protease (setting [2]) is 25.6 µM.

Consider `CSCCC(NC(=O)OC(C)(C)C)C(O)C(O)C(CCSC)NC(=O)OC(C)(C)C` (stereo not shown) [Example 1B], for which the “Cell Assay IC50” value in the experiment on HIV(3b) or HIV(Rf) (Table XVII, HIV in MT-2 cells) worked out at 5. For the same molecule, the IC50 at HIV protease (setting [2]) is 78.9 µM.

`CC(C)(C)OC(=O)N[C@@H](Cc1ccccc1)[C@H](O)[C@@H](O)[C@H](Cc1ccccc1)NC(=O)OC(C)(C)C` [Example 2A, Bis(1,1-dimethylethyl) (2,3-dihydroxy-1,4-(phenylmethyl)-1,4-butanediyl)biscarbamate (1S,2S,3S,4S)]: the IC50 is 10 µg/mL (≈ 20 µM) in the experiment on HIV(3b) or HIV(Rf) (setting [3]) and 24 µM at HIV protease (setting [2]). Also, the IC90 in the experiment with HIV(3b) or HIV(Rf) (setting [1]) is 30 µg/mL (≈ 59.9 µM).

As for `CC(C)(C)OC(=O)N[C@@H](Cc1ccccc1)[C@@H](O)[C@H](O)[C@H](Cc1ccccc1)NC(=O)OC(C)(C)C` [Example 2B], the IC50 with HIV(3b) or HIV(Rf) (setting [3]) is 1.9 µg/mL (≈ 3.8 µM); on HIV protease (setting [2]) it was 0.34 µM. Also, the 90% effect concentration (IC90) with HIV(3b) or HIV(Rf) (setting [1]) came out at 3 µg/mL (≈ 5.99 µM).

Regarding `CC(C)(C)OC(=O)N[C@@H](Cc1ccccc1)[C@H](O)[C@H](O)[C@H](Cc1ccccc1)NC(=O)OC(C)(C)C` [Example 2C, Bis(1,1-dimethylethyl) (2,3-dihydroxy-1,4-(phenylmethyl)-1,4-butanediyl)biscarbamate (1S,2S,3R,4S)], on HIV protease (setting [2]), the IC50 was 61.9 µM.

With `CC(C)(C)OC(=O)NCC(O)C(O)CNC(=O)OC(C)(C)C` (stereo not shown) [Example 3, Bis(1,1-dimethylethyl) (2,3-dihydroxy-1,4-butanediyl)biscarbamate], at HIV protease (setting [2]), the IC50 is 1200 µM.

In the case of `CC(NC(=O)OC(C)(C)C)C(O)C(O)C(C)NC(=O)OC(C)(C)C` (stereo not shown) [Example 4, Bis(1,1-dimethylethyl) (2,3-dihydroxy-1,4-dimethyl-1,4-butanediyl)biscarbamate], on HIV protease (setting [2]), the IC50 was 1250 µM.

Regarding `CC(C)C(NC(=O)OC(C)(C)C)C(O)C(O)C(NC(=O)OC(C)(C)C)C(C)C` (stereo not shown) [Example 5, Bis(1,1-dimethylethyl) (2,3-dihydroxy-1,4-(1-methylethyl)-1,4-butanediyl)biscarbamate], the IC50 at HIV protease (setting [2]) is 161 µM.

For `CC(C)CC(NC(=O)OC(C)(C)C)C(O)C(O)C(CC(C)C)NC(=O)OC(C)(C)C` (stereo not shown) [Example 6, Bis(1,1-dimethylethyl) (2,3-dihydroxy-1,4-(2-methylpropyl)-1,4-butanediyl)biscarbamate], the IC50 at HIV protease (setting [2]) was 11.1 µM.

In the case of `CC(C)(C)OC(=O)N1CCCC1C(O)C(O)C1CCCN1C(=O)OC(C)(C)C` (stereo not shown) [Example 7, Bis(1,1-dimethylethyl) 2,2'-(1,2-dihydroxy-1,2-ethanediyl)-1-bis(pyrrolidinecarboxylate)], the IC50 on HIV protease (setting [2]) was 1250 µM.

Consider `CC(C)(C)OC(=O)NC(c1ccccc1)C(O)C(O)C(NC(=O)OC(C)(C)C)c1ccccc1` (stereo not shown) [Example 8, Bis (1,1-dimethylethyl) (2,3-dihydroxy-1,4-diphenyl-1,4-butanediyl)biscarbamate], for which, on HIV protease (setting [2]), the IC50 was 1250 µM.

Regarding `O=C(NC(Cc1ccccc1)C(O)C(O)C(Cc1ccccc1)NC(=O)OCc1ccccc1)OCc1ccccc1` (stereo not shown) [Example 9], the IC50 at HIV protease (setting [2]) was 0.914 µM.

Take `CC(C)(C)OC(=O)NC(CCc1ccccc1)C(O)C(O)C(CCc1ccccc1)NC(=O)OC(C)(C)C` (stereo not shown) [Example 10, Bis(1,1-dimethylethyl) (2,3-dihydroxy-1,4-(2-phenylmethyl)-1,4-butanediyl)biscarbamate]: the IC50 at HIV protease (setting [2]) is 1130 µM.

For the molecule `CC(C)(C)OC(=O)NC(Cc1ccc(F)cc1)C(O)C(O)C(Cc1ccc(F)cc1)NC(=O)OC(C)(C)C` (stereo not shown) [Example 11], the IC50 on HIV protease (setting [2]) is 37.3 µM.

With `CC(C)(C)OC(=O)NC(Cc1ccc(I)cc1)C(O)C(O)C(Cc1ccc(I)cc1)NC(=O)OC(C)(C)C` (stereo not shown) [Example 12], on HIV protease (setting [2]), the IC50 is 5.45 µM.

Take `CC(C)(C)OC(=O)NC(Cc1ccc(O)cc1)C(O)C(O)C(Cc1ccc(O)cc1)NC(=O)OC(C)(C)C` (stereo not shown) [Example 13, Bis(1,1-dimethylethyl) (2,3-dihydroxy-1,4-(4-hydroxyphenyl)methyl-1,4-butaneidyl)biscarbamate]: the values for the IC50 in the experiment with HIV(3b) or HIV(Rf) (setting [3]) and at HIV protease (setting [2]) were 2.3 µg/mL (≈ 4.32 µM) and 6.2 µM, respectively. Also, the 90% effect concentration (IC90) in the experiment with HIV(3b) or HIV(Rf) (setting [1]) worked out at 25 µg/mL (≈ 46.9 µM).

As to `CC(=O)N[C@@H](Cc1ccccc1)[C@@H](O)[C@H](O)[C@H](Cc1ccccc1)NC(C)=O` [Example 14, N,N'-((2,3-dihydroxy-1,4-(phenylmethyl)-1,4-butanediyl))bisacetamide], the IC50 on HIV protease (setting [2]) is 1250 µM.

As to `N[C@@H](Cc1ccccc1)[C@H](O)[C@@H](O)[C@@H](N)Cc1ccccc1` [Example 15, 2,5-Diamino-1,6-diphenyl-3,4-hexanediol dihydrochloride], the IC50 at HIV protease (setting [2]) is 866 µM.

With `N[C@@H](Cc1ccccc1)[C@@H](O)[C@H](O)[C@@H](N)Cc1ccccc1` [Example 16, 2,5-Diamino-1,6-diphenyl-3,4-hexanediol dihydrochloride], at HIV protease (setting [2]), the IC50 was 866 µM.

`CC(N)C(O)C(O)C(C)N` (stereo not shown) [Example 17, 2,5-Diamino-3,4-hexanediol dihydrochloride]: on HIV protease (setting [2]), the IC50 was 1260 µM.

In the case of `CC(NC(=O)C(NC(=O)OC(C)(C)C)C(C)O)C(=O)NC(C(=O)NC(C)C(=O)NC(Cc1ccccc1)C(O)C(O)C(Cc1ccccc1)NC(=O)C(C)NC(=O)C(NC(=O)C(C)NC(=O)C(NC(=O)OC(C)(C)C)C(C)O)C(C)O)C(C)O` (stereo not drawn) [Example 18, Bis(Boc-Thr-Ala-Thr-Ala), N,N'((2,3-dihydroxy-1,4-(phenylmethyl)-1,4-butanediyl))biscarbamate], the IC50 in the experiment on HIV(3b) or HIV(Rf) (Human immunodeficiency virus 1, MT2, read-out: Cell Assay IC50) is 6 µg/mL (≈ 5.04 µM); on HIV protease (read-out: Cell Free Assay), 1.93 µM. Further, the 90% effect concentration (IC90) with HIV(3b) or HIV(Rf) (Human immunodeficiency virus 1, MT2, read-out: Cell Assay IC90) stood at 12 µg/mL (≈ 10.1 µM).

Take `CC[C@H](C)[C@H](NC(=O)Cc1ccccn1)C(=O)N[C@@H](Cc1ccccc1)[C@@H](O)[C@H](O)[C@H](Cc1ccccc1)NC(=O)[C@@H](NC(=O)Cc1ccccn1)[C@@H](C)CC` [Example 20, 2,5-(N-2-Pyridylacetyl-L-Ile)diamino-1,6-diphenyl-3,4-hexanediol]: the IC50 with HIV(3b) or HIV(Rf) (setting [3]) was less than 1 µg/mL; on HIV protease (setting [2]) it was 0.0131 µM. Moreover, in the experiment with HIV(3b) or HIV(Rf) (setting [1]), the concentration for an effect of 90% (IC90) is less than 1 µg/mL.

As to `CCC(C)C(NC(=O)Cc1ccccn1)C(=O)NC(Cc1ccccc1)C(O)C(O)C(Cc1ccccc1)NC(=O)C(NC(=O)Cc1ccccn1)C(C)CC` [Example 21, 2,5-(N-2-Pyridyl-L-Ile,N'-2-pyridyl-D-Ile)diamino-1,6-diphenyl-3,4-hexanediol], the IC50 with HIV(3b) or HIV(Rf) (setting [3]) is 6 µg/mL (≈ 7.84 µM); on HIV protease (setting [2]), 0.00261 µM.

As usually defined, the IC90 is the point of the concentration-response curve where the effect stands at 90%.
